# Results as given in publication PMC539285, “Anti-Plasmodium activity of ceramide analogs” (Malaria Journal, 2004).
# Experiments:
# erythrocytes = assay: Lysis of normal and infected erythrocytes; format: cell-based, human; settings: 250 nM, 48 hours
# Procedure: By their lipidic nature, these analogs might act through a detergent effect that could lead to lysis or modification of the integrity of infected-erythrocyte membranes. This apparently is not the case. No significant lysis of normal erythrocytes was observed after 48 hous of incubation with concentrations of analogs up to 10 μM (data not shown).
# [1] = test system: chloroquine-resistant strain FcB1 of P. falciparum; assay: Anti-Plasmodium activity, [3H]hypoxanthine microdilution on asynchronous cultures; format: cell-based, Plasmodium falciparum
# Procedure: (§1) P. falciparum strains (FcB1/Colombia, K1/Thailand, F32/Tanzania, W2/Indochina) were maintained in continuous culture on human erythrocytes in RPMI medium containing 7% (v/v) heat-inactivated human serum under an atmosphere of 3% CO2, 6% O2, 91% N2, at 37°C, as described by Trager and Jensen. Parasite synchronization was performed successively by treatment with 5% (w/v) sorbitol and by concentration in gelatin solution as previously described.
# (§2) Drug susceptibility assays were performed using a modification of the semi automated microdilution technique of Desjardins et al.. Stock solutions of test compounds were prepared in DMSO. Drug solutions were serially diluted twofold with 100 μl culture medium in 96-well plates. Asynchronous parasite cultures (100 μl, 1 % parasitemia and 1 % final hematocrite) were added to each well and incubated for 24 hours at 37°C prior to the addition of 0.5 μCi of [^3H] hypoxanthine (Amersham, France, 1 to 5 Ci.mmol/ml) per well. After a further incubation of 24 hour, plates were frozen and thawed. Cell lysates were then collected onto glass-filter papers and counted in a liquid scintillation spectrometer. The growth inhibition for each drug concentration was determined by comparison of the radioactivity incorporated in the treated culture with that in the control culture (having the same final % of DMSO) maintained on the same plate. The concentration causing 50% growth inhibition (IC50) and 90% growth (IC90) were obtained from the drug concentration-response curve and the results were expressed as the means ± the standard deviations determined from several independent experiments.
# [2] = test system: P. falciparum sphingomyelin synthase activity; assay: Sphingomyelin synthase activity assay in trophozoite cultures (NBD-C6-ceramide); format: cell-based, Plasmodium falciparum; settings: trophozoites 20-30 h, 0-500 μM drug, 10 μM NBD-C6-ceramide, 60 min, 37°C
# Procedure: SPM synthase activity was measured as described by Haldar et al.. Briefly, assays were performed on P. falciparum cultures at the trophozoite stage (20–30 h old parasites). 400 μl of culture (1 × 10^8 parasites) were incubated for 60 min at 37°C with 10 μM NBD-C6-ceramide and 0 to 500 μM PPMP or AD2646. Cells were then lysed by freezing and thawing of the culture. Lipids were extracted by a modification of the method of Bligh and Dyer. To each sample, three volumes of a CH3OH/CHCl3 mixture (1:2, v:v) were added and the mixture vortexed for one min. Organic and aqueous phases were separated by centrifugation (12,000 × g, five min) and the organic phase was dried. Lipids were dissolved in 15 μl ethanol and analysed by thin layer chromatography on HPTLC plates (Silica gel 60 F254, Merck, Darmstadt, Germany) in CH3OH/[…]/NH4OH (75:25:4, v:v:v). For qualitative analyses, the fluorescent lipids were detected under UV and for quantitative analyses, the fluorescent lipid spots were scraped, eluted in one ml methanol and quantified at an excitation of 470 nm and an emission of 530 nm in a spectrofluorometer. The percentage of SPM synthase activity for each drug concentration was determined by comparison of the fluorescence quantified in the analog-treated culture with that in the control culture (without drug).
# [3] = test system: tubovesicular network of P. falciparum; assay: Tubovesicular network formation, BODIPY-FL-C5-ceramide fluorescence microscopy; format: cell-based, Plasmodium falciparum
# Procedure: Infected erythrocytes treated with or without ceramide analogs were incubated for 30 min, at 37°C, in culture medium containing 10 μM BODIPY-FL-C5-ceramide, washed three times with culture medium without serum and fixed overnight, at 4°C, in 3.7% formaldehyde/0.05% glutaraldehyde. Cells were mounted on poly-L-lysine coated slides and viewed using a Nikon Eclipse TE 300 DV inverted microscope with an 100X oil objective mounted on a piezzo electric device using appropriate fluorescence emission filters. Image acquisition (z-series) was performed with a back illuminated cooled detector (CCD EEV: NTE/CCD-1024-EB, Roper Scientific, France) using a 0.2 μm step. Data acquisition and image deconvolution process were performed with Metamorph software (Universal Imaging Corporation, Roper Scientific, France). The images presented correspond to the maximum intensity projection of the deconvoluted z-series.
# CQ-resistant strain K1 = assay: Drug combination with antimalarial drugs, strain K1; format: cell-based, Plasmodium falciparum; settings: CQ-resistant strain K1 (data not shown)
# Excerpt: Compound AD2646 (Figure 1) was selected to further investigate the biological effects of methylene analogs on parasite development.
# P. falciparum strain K1 = assay: Anti-Plasmodium activity, strain K1; format: cell-based
# Procedure: as §1
# as §2, with “The concentration causing 50% growth inhibition (IC50) and 90% growth (IC90) were obtained from the drug concentration-response curve and the results were expressed as the means ± the standard deviations determined from several independent experiments.” left out
# [4] = test system: P. falciparum synchronized cultures; assay: Parasite stage-specific inhibitory effects and reversibility (Giemsa-stained smears); format: cell-based, Plasmodium falciparum; settings: for recovery of parasite growth after drug removal: drug removed after 11 hours
# Procedure: Synchronized cultures (1–2% parasitemia) at the ring stage (0–10 hours old parasites), the trophozoite stage (25–35 hours old parasites) and the schizonte stage (40–48 hours old parasites) were maintained in the presence of drug concentrations in the vicinity of IC50 values. Aliquots were removed at the indicated times, washed three times with culture medium and maintained in culture in the absence or in the presence of a given drug. […] Parasitaemias were determined by counting 3,000 cells for each sample. Controls consisted of parasites incubated with DMSO instead of drugs processed in the same way.
# To investigate the cytostatic or cytotoxic effects of AD2646 on the parasite development, cultures at the ring stage (0–10 hours), the trophozoite stage (25–35 hours) and the schizonte stage (40–48 hours) were incubated with 30, 100 or 250 nM of AD2646 for 24.5 hours for the ring stage, for 11 hours for the trophozoite stage, and for 14 hours for the schizonte stage. Aliquots were then taken, washed and incubated in the absence or the presence of drug for a further 13 hours to 24 hours depending upon the parasite stage tested (see Figure 5). Parasitaemia and parasite stages were determined on Giemsa-stained smears at time of aliquot removal and after the subsequent incubation.
smiles,measurement,setting,value
CCCCCCCCCCCCCCN[C@H](CO)[C@H](O)c1ccc([N+](=O)[O-])cc1 [AD2646],parasite growth,erythrocytes,inhibiting parasite growth totally
same,lysis of infected erythrocytes,"erythrocytes; infected cultures, Giemsa-stained smears",no preferential lysis of infected-erythrocytes
same,efficiency in inhibiting parasite development relative to PPMP,[1]; AD2646 versus PPMP,about 300 times
same,IC90,"[1]; Plasmodium falciparum, 48 h, Figure 3, series B, strain FcB1, 90% growth inhibition, read-out: CI90 (the source's name)",57.7 ± 3.2 nM
same,IC50,"[1]; Plasmodium falciparum, Figure 3, series B (methylene or thiourea linkage), strain FcB1, read-out: CI50 (the source's name)",30.8 ± 4.6 nM
same,inhibition of SPM synthase activity (shape of curve),[2],biphasic inhibition curve that superimposes on the PPMP inhibition curve
same,parasite development,[3]; 60 nM,blocks irreversibly the parasite development
same,TVN formation,[3]; rings incubated 24 hours with 60 nM AD2646 or 5 μM PPMP,TVN was distinctly observed
same,drug combination effect with CQ,CQ-resistant strain K1,non-synergistic and non-antagonistic effect
same,IC50,P. falciparum strain K1,45 nM
same,parasite growth from the ring stage,"[4]; ring stage, 100 and 250 nM, no recovery after drug removal at 24 hours",irreversibly blocked at the young trophozoite stage
same,development of the ring stage,"[4]; ring stage, continuous incubation with 30 nM",slightly affected
same,development of the schizont stage,"[4]; schizont stage, 30 nM",a slight effect was only observed
same,parasite growth from the schizont stage,"[4]; schizont stage, 100 nM",irreversibly blocked
same,recovery of parasite growth after drug removal,"[4]; trophozoite stage, 30 nM",Only a partial recovery of parasite growth
same,recovery of parasite growth after drug removal,"[4]; trophozoite stage, 100 nM",No recovery of parasite growth
same,development of the trophozoite stage,"[4]; trophozoite stage, continuous incubation with 30 nM",completely blocked development
